We go through 14 substances from paper PMC12291119, “In Vitro Selection of Cyclized, Glycosylated Peptide Antigens That Tightly Bind HIV High Mannose Patch Antibodies” (ACS Central Science, 2025).

Assay [1] deals with PGT122. The assay can be described thus: Bead-based radiometric binding assay of ribosomally synthesized free peptides. As to conditions: free 3H-histidine-labelled peptide, no click glycosylation; 0, 100, 200, 400 nM antibody, 1 h room temperature, Protein G beads, LSC; Michaelis-Menten fit; preliminary. As for the experimental part: The protocol used for cyclization while captured on resin was as follows: To 20 µL of crude translated peptide was added 80 µL of bind buffer with BME (50 mM Tris-HCl, pH 7.8, 300 mM NaCl, 5 mM BME) and 20 µL of HisPur™ Ni-NTA Resin (ThermoScientific). The mixture was tumbled at room temperature for 1 hour. Next, the mixture was spun down at 17,000 ×g, and the supernatant was carefully removed from the loosely-pelleted agarose.
The resin was washed three times with 160 µL of cyclization wash buffer with TCEP (50 mM Tris-HCl, pH 8.0, […]). To the resin was then added 160 µL of free peptide cyclization buffer (50 mM Tris-HCl, pH 8.0, 300 mM NaCl, 0.5 mM TCEP, 3.3 mM m-dibromoxylene, 33% (v/v) MeCN), and the mixture was covered in foil and tumbled at room temperature for 30 minutes. The supernatant was removed and 160 µL of cyclization wash buffer with BME (50 mM Tris-HCl, pH 8.0, 300 mM NaCl, 10 mM BME, 33% (v/v) MeCN) was added. The suspension was tumbled at room temperature for 10 minutes without aluminum foil to quench the reaction. The reaction was spun down, and the supernatant was removed. Next, the resin was resuspended in wash buffer (50 mM Tris-HCl, pH 7.8, 5 mM BME) and transferred to a 0.22 µm Ultrafree-MC Centrifugal Filter (MilliporeSigma). The tube was rinsed with 80 µL of wash buffer, and the rinse was added to the filter. The filter was then spun down at 10,000 ×g for 1 minute. The resin in the filter was washed twice with 160 µL of wash buffer. To elute the peptide, 20 µL 0.2% (v/v) TFA was added to the resin and allowed to sit at room temperature for 2 minutes before spinning down and collecting in a new tube. The elution step was carried out once more, with the eluent collected separately.
4. Radioactive Peptides for Bead-based Radiometric Binding Assay
For binding analysis, translation (50 µL) was carried out in the presence of PDF/MAP and 3H-histidine for radiolabeling. The crude peptides were purified by Ni-NTA agarose and, if the sequence contained two cysteine residues, was cyclized while captured on the Ni-NTA resin. The peptide eluents were combined and dialyzed as follows: To the combined eluents was added a solution of Triton X-100 in water for a final concentration of 0.1%.
Next, the peptides were dialyzed against 0.1% (v/v) Triton X-100 using a Slide-A-Lyzer™ MINI device (0.1 mL capacity, 3.5 kDa MWCO) (Thermo Scientific) at room temperature overnight. The dialyzed peptides were retrieved from the devices. The peptide solutions were concentrated to dryness by speedvac for the click reaction. […]
room temperature. While tumbling, Dynabeads™ Protein G (Invitrogen) were equilibrated with 1X selection buffer as follows: Steps were carried out using a multi-channel pipettor where possible. For each sequence, 8 µL of Protein G bead suspension was transferred to a 0.2 mL PCR tube in a strip. Next, 64 µL (8 bead vol.) of 1X selection buffer was added to the beads. The mixture was resuspended by gently vortexing, spun down briefly, and placed on a magnet for 1 minute. The supernatant was removed, and this wash was repeated two more times. The final supernatant was removed just prior to addition of the incubated peptide/antibody mixture. The mixture was allowed to tumble at room temperature for 30 minutes to capture antibodies and bound peptides. Next, the suspension was briefly spun down, placed on a magnet, and the supernatant was transferred to an individual 0.2 mL PCR tube. To wash the beads, 16 µL of 1X selection buffer was added, gently vortexed, spun down briefly, placed on a magnet for 1 minute, and the wash was transferred to the same PCR tube as the supernatant. This wash step was repeated twice more for a total of three washes, saved altogether with the supernatant as the “unbound” fraction. The beads were then resuspended in 50 µL of denaturing elute buffer. The suspension was heated at 95 °C for 5 minutes to denature […]

Assay [2] has as its target PGT122. As to the kind of experiment: Bead-based radiometric binding assay of clones prepared as cDNA/mRNA-glycopeptide fusions. As to conditions: 2K CPM per sample, Protein G beads, LSC, preliminary. As for the experimental part:
antibodies, spun down briefly, placed on a magnet for 1 minute, and the eluent was transferred to an individual 0.2 mL PCR tube. The beads were washed with 50 µL of denaturing elute buffer, and the wash was placed into the same tube as the eluent. The combined eluent and wash represented the “bound” fraction. The beads were resuspended in 50 µL of denaturing elute buffer, vortexed, and directly placed into a vial with liquid scintillation cocktail for radioactivity measurements, though it was not included in calculations of fraction bound. Each of the tubes with the “unbound” and “bound” fractions were placed into vials for LSC. The tube in which the antibody and peptides were incubated were also measured by LSC, but not included in calculations of fraction bound. Fraction bound values for each antibody concentration after background adjustment were input into KaleidaGraph 4.1.1 for curve fitting to a […]
5. Clones Prepared as cDNA/mRNA-glycopeptide Fusions
Selected clones were also prepared as cDNA/mRNA-glycopeptide fusions for binding analysis. RNA (450-1000 pmol) was photo-crosslinked as described in Section IV.A.2 but with 10 µM transcribed RNA and 15 µM XL-PSO in 1X XL Buffer for annealing, and dilution to 100 µL for irradiation at 365 nm. XL-RNA was then purified by ethanol precipitation and 5% denaturing urea-PAGE with electroelution. Purified XL-RNA was translated in the presence of PDF/MAP and 3H-histidine for radiolabeling. Crude translation reactions were captured on Pierce™ Streptavidin UltraLink™ Resin (Thermo Scientific), subjected to reverse transcription, and cyclized as described for selection. Fusions were then washed and photo-eluted with 1X selection buffer instead of 0.2% (v/v) […]. […]
reverse transcription in preparation for photo-elution. Note: 2U3 was also cyclized despite having only one cysteine residue to better mimic its structure during selection. Fusions were then passed through 0.22 µm Ultrafree-MC Centrifugal Filters (MilliporeSigma), buffer exchanged by ethanol precipitation, and subjected to click reaction (5 µL) with Man9(GlcNAc)2-azide as described in Section II.A.8. Binding assays were performed analogously as with […]
as free peptides and cDNA/mRNA-glycopeptide fusions.
Name Click KD Ratio (No click : Click) KD Ratio (No click : Click) […]
a 2U3 was cyclized as a fusion but not as a free peptide.

Assay [3] deals with HIV pseudovirus panel. Particulars: ref number not given, cited from earlier work. The source says: We have sought to mimic HMP epitopes without using either the entire Env protein, which contains a plethora of “distracting” epitopes that easily elicit off-target antibodies; − or short glycopeptides directly derived from the Env sequence, which may not sufficiently recapitulate the HMP structure without the conformational support of the remaining Env protein. Aiming to design glycostructures that better mimic the glycan presentation in the HMP, we have pioneered various techniques for the directed evolution of DNA, , RNA, F-RNA, or peptide-supported , glycan clusters.

The mark [4] stands for this setting: cDNA/mRNA-glycopeptide fusion, click-glycosylated with Man9(GlcNAc)2-azide.
The mark [5] stands for this setting: cDNA/mRNA-peptide fusion, no click glycosylation.
[6] abbreviates: diverse/representative HIV pseudovirus panel.

Ends that are not written are not given here.

Take “AFIAYYFDLSQPNLHSPNFTLKIGDIREAQCMLTCDSAKPNPRVVPILALLI (also: sidechain bridge or staple (positions not given here)) [2B3c, ribosomally synthesized PGT122 selection clone, cyclized]”: the Kd was 4.49 µM in assay [1], 0.14 µM in assay [2] (setting [4]) and 0.0997 µM in assay [2] (setting [5]).
In assay [1], “AHSLFNFQVRLKQLPLDANGAVIGDIRIAECMNHTYTPLTFYIYSNHPTDIQ [GB1, ribosomally synthesized gl-PGT121 selection clone]” yielded a Kd of 0.181 µM.
Regarding “AKTKTYLIRFHLDILPNDNLRSQKIRLIFGDKATVKGMITFLNDSELEWNFE [2U1, ribosomally synthesized PGT122 selection clone, tested with and without click glycosylation]”, the Kd in assay [2] (setting [4]) was found to be 0.0298 µM; in assay [2] (setting [5]), 0.0825 µM.
In the case of “AKTRTPMNLSGKSNIRYFFTIDNSTMFEDLFMRFPRSKEYHIELEEFKDLIR [2U7]”, the Kd stood at 1.43 µM in assay [1], 0.139 µM in assay [2] (setting [4]) and 0.3 µM in assay [2] (setting [5]).
On to “ALNLYQIVEFTIDESNDIVQLQIGDIRTADCMSLNKECYNIIFFSWDNHGKN (also: sidechain bridge or staple (positions not given here)) [2B4c, ribosomally synthesized PGT122 selection clone, cyclized]”, for which the Kd in assay [1] turned out to be 0.158 µM; in assay [2] (setting [4]), 0.155 µM; in assay [2] (setting [5]), 0.0444 µM.
Consider “ANNFICIRNIGDIRSARCMNVSAGRYAPYREFYFDITYDDFNKNVNIVITPV (also: sidechain bridge or staple (positions not given here)) [2B8c, ribosomally synthesized PGT122 selection clone, cyclized]”, for which the results for the Kd in assay [2] (setting [4]) and in assay [2] (setting [5]) were 0.108 µM and 0.176 µM, respectively.
In the case of “ANPRIIFFELSIRNNSLKLLRWHDTQGIFHDSMTELSQHAELPRFKFHSNAA [GU1, ribosomally synthesized gl-PGT121 selection clone]”, the Kd in assay [1] stood at 0.156 µM.
With “ANPSFSVQFIVDLIGPNVMRITLSNKPFATICPITEGESHISKRFNFQLTIS [2U3c, ribosomally synthesized PGT122 selection clone; cyclized as a fusion but not as a free peptide]”, the Kd in assay [2] (setting [4]) is 0.449 µM; in assay [2] (setting [5]), 0.281 µM.
Take “AQYIDWEIDINQVPNQMNLSKPTWKSDITINKVKWSFYININQASNENTDNI [2U6, ribosomally synthesized PGT122 selection clone]”: the Kd in assay [1] came out at 0.166 µM; in assay [2] (setting [4]), 0.173 µM; in assay [2] (setting [5]) it was 0.0967 µM.
The corresponding values for “ATLNIFSNFSIEPDSFYEIVLPIGDIRIAPCMSSFNRNGSTNNCYHFEINLF (also: sidechain bridge or staple (positions not given here)) [2B5c, ribosomally synthesized PGT122 selection clone, cyclized]” are 0.212 µM, 0.0859 µM and 0.315 µM.
Regarding “AYPVYLRLPIGDIRIASCMFGDEPNTWTRDELNDYFYTESYNPQPITITFKC (also: sidechain bridge or staple (positions not given here)) [2B2c, ribosomally synthesized PGT122 selection clone, cyclized]”, the Kd in assay [1] came to 1.65 µM; in assay [2] (setting [4]) it was 0.116 µM; in assay [2] (setting [5]), 0.089 µM.
Regarding “AYSIHFVCDINETPTNTSKAIFSIKCDITTPESTTRQLMITKHYHFPPTGTR (also: sidechain bridge or staple (positions not given here)) [2U8c, ribosomally synthesized PGT122 selection clone, cyclized]”, the Kd was found to be 0.0484 µM in assay [2] (setting [4]) and 0.173 µM in assay [2] (setting [5]).
Consider “AYVISFSIDQPDLDRPNIIRISIGDIRSAKCMKLDTINFAYRDDSSEVCYEK (also: sidechain bridge or staple (positions not given here)) [2B7c, ribosomally synthesized PGT122 selection clone, cyclized]”, for which the Kd in assay [1] came to 0.0298 µM; in assay [2] (setting [4]), 0.143 µM; in assay [2] (setting [5]), 0.0662 µM.
On to “PGT128: broad and very potent HIV bnAb binding the High Mannose Patch”, for which, in assay [3] (setting [6]), the “breadth (fraction of HIV pseudovirus panel neutralized)” value is recorded as 72% and the “median IC50” value was 0.02 µg/mL. Further, in assay [3] (neutralization potency), the “potency (EC50)” value is 0.02 µg/mL.
